The target in data set [1] is T1, Oxysterols receptor LXR-alpha (Homo sapiens, UniProt Q13133).
T1 sequence (Q13133 whole entry): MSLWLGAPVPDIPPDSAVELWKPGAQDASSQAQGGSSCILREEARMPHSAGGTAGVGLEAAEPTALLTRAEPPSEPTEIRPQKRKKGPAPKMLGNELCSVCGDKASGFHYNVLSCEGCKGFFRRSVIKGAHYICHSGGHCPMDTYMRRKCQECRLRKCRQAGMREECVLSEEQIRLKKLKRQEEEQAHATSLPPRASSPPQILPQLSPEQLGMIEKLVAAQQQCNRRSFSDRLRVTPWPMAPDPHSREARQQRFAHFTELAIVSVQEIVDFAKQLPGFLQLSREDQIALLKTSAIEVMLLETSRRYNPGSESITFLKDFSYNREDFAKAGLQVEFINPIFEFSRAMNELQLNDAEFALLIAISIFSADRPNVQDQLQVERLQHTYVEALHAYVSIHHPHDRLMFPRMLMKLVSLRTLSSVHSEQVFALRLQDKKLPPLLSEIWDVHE
Description: Agonist activity at GAL4-fused human LXRalpha expressed in HEK293T cells assessed as activation of basal transcriptional activity after 20 hrs by dual-glo luciferase reporter gene assay

Another data set addresses T2, PXR (NR1I2) (Homo sapiens, UniProt O75469).
T2 sequence (O75469 whole entry): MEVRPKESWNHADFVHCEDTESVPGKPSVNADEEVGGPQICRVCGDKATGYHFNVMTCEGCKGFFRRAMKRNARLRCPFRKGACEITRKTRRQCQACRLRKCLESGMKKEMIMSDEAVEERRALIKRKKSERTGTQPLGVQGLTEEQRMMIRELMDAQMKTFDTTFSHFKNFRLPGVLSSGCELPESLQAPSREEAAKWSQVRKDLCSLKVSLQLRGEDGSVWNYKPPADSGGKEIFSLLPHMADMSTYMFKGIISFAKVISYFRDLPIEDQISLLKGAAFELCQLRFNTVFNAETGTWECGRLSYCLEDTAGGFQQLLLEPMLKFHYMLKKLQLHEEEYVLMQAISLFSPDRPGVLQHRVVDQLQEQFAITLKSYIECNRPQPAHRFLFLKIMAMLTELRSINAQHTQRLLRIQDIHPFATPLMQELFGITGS
The experiment in a line: in vitro. The conditions noted are these: HEK293T cells expressing GAL4-fused human PXR.

Data set [2] has as its target T3, Nuclear receptor subfamily 1 group I member 2 (Homo sapiens, UniProt O75469).
T3 sequence (O75469 whole entry): T2 sequence (O75469 whole entry)
Kind of data set: Agonist activity at GAL4-fused human PXR expressed in HEK293T cells assessed as activation of basal transcriptional activity after 20 hrs by dual-glo luciferase reporter gene assay. Format: cell-based, HEK-293T. In general terms: A reporter such as luciferase makes a cellular process visible.

Data set [3] deals with PBMC. The experiment in a line: Antiinflammatory activity in human PBMC assessed as inhibition of IL-17 production after 48 hrs by Sandwich ELISA relative to control. The class given is functional. A general note: In an ELISA, binding on a coated surface is turned into a signal by an enzyme label.
Data set [4] deals with PBMC. Kind of data set: Inhibition of IFNgamma production in human PBMC after 48 hrs by Sandwich ELISA.
The subject of data set [5] is PBMC. The experiment in a line: Cytotoxicity against human PBMC assessed as effect on cell physiology after 48 hrs by CellTiter-Glo assay.
In data set [6] the test system is PBMC. Kind of data set: cells. To be noted: Homo sapiens, 48 h.

Here are results for three molecules from ChEMBL document CHEMBL3091433, “Structure-based design of substituted hexafluoroisopropanol-arylsulfonamides as modulators of RORc” (Bioorg Med Chem Lett, 2013).

pEC50: −log10 of the molar value.

Description for PXR (NR1I2): Agonist activity at GAL4-fused human PXR expressed in HEK293T cells assessed as activation of basal transcriptional activity after 20 hrs by dual-glo luciferase reporter gene assay relative to apo-receptor

Consider `CCN(c1ccc(C(O)(C(F)(F)F)C(F)(F)F)cc1)S(=O)(=O)c1ccccc1`, for which the pEC50 (commonly the EC50 on a negative log10 scale, so that one unit is a factor of ten) in data set [1] is 5.52; in data set [2] it was 7.41. Moreover, the fold induction (commonly the ratio of treated to control signal) at 20 h on PXR (NR1I2) worked out at 24.
Regarding `N#Cc1ccc(S(=O)(=O)N(CC(F)(F)F)c2ccc(C(O)(C(F)(F)F)C(F)(F)F)cc2)cc1`, the Imax in the data set on PBMC [3] came to 74%. The negative-log EC50 (pEC50) was under 4.70 in the data set with PBMC [4]; under 4.70 in the data set on PBMC [5]; 6.00 in the data set with PBMC [6]; under 5.00 in data set [1]; 6.24 in data set [2]. Further, the fold induction at 20 h at PXR (NR1I2) worked out at 27.
For the molecule `O=S(=O)(c1ccc(F)cc1)N(CC(F)(F)F)c1ccc(C(O)(C(F)(F)F)C(F)(F)F)cc1`, the Imax with PBMC [3] is 83%. For the same molecule, the pEC50 in the data set on PBMC [4] was under 4.70; with PBMC [5], under 4.70; in the data set with PBMC [6] it was 6.88; in data set [1] it was 6.14; in data set [2] it was 6.71. In addition, the fold induction at 20 h on PXR (NR1I2) was found to be 30.
